Test results taken from patent publication US20030129134A1, “Method of monitoring neuroprotective treatment” (Pfizer Inc., priority 2001, published 2003).

System: S-100b
Experiment: Serum S-100b levels in patients with severe contusive-type head trauma treated by constant infusion
Assay type: in vivo, human
Conditions: constant infusion for 72 hours, serum samples out to 120 hours post-infusion, luminometric immunoassay
Text: Levels of S-100b can be measured in a biological sample of a patient's blood or CSF using a commercially available immunoradiometric assay or luminometric immunoassay kit such as those available from Byk-Sangtec Diagnostica GmbH & Co. (Dietzenbach, Germany), which are based on a two-site immunoluminometric sandwich assay using the commercially available LIAISON® Sangtec® S-100 assay system. In this assay system, paramagnetic particles are coated with two anti-S100b monoclonal antibodies directed to different epitopes, and a secondary anti-S100b monoclonal antibody labeled with an isoluminol derivative is provided as detection antibody. The paramagnetic particles, assay buffer, and biological sample are first incubated and unbound material is removed by a wash cycle. […] Subsequently, starter reagents that activate the chemoluminscent reaction are added and the S-100b concentration is determined via the chemiluminescence reaction induced by the previously added reagents. The light signal is measured in relative light units (RLUs) and is directly proportional to the amount of S-100b protein in the sample. […]
S-100b levels were measured in the serum of patients suffering from severe contusive-type head trauma. […] S-100b levels were determined using a commercially available luminometric immunoassay kit from Byk-Sangtec Diagnostica GmbH & Co. (Dietzenbach, Germany).

## C[C@@H]([C@@H](O)c1ccc(O)cc1)N1CCC(O)(c2ccccc2)CC1 [CP-101,606, (1S,2S)-1-(4-hydroxyphenyl)-2-(4-hydroxy-4-phenylpiperidin-1-yl)-1-propanol]
  S-100b levels in serum compared to the placebo group: significantly reduced
